In patent US12006294B2, “Therapeutic compounds” (REGENTS OF THE UNIVERSITY OF MINNESOTA, priority 2017, dated 2024):
Entries after “also recorded” stand apart in the source; their conditions may differ. Like-named read-outs stand apart in the source and are kept apart here.

How the values were obtained:
[1] = system: mice; assay: Acetaminophen hepatotoxicity (ALT, TBARS, survival); conditions: for elevated ALT levels after acetaminophen overdose: delayed administration post APAP administration; for hepatotoxicity of acetaminophen (ALT levels): pretreatment (30 min) before acetaminophen
[2] = system: mice; assay: Tail flick assay of drug combinations (morphine or acetaminophen + GA and/or analogs); conditions: acetaminophen:BC1-45-1 ratios 500:1 to 1000:1; acetate
[3] = system: CAD5 cells; type: cell-based
[4] = system: Hela Cells; assay: Cellular ER stress model (tunicamycin, WST-8 cell viability); conditions: for AntiERStress (% Cell Survival): HeLa cells, tunicamycin 48 hours, WST-8; for viability at 2.5 µM: Homo sapiens, HeLa, 48 h
[5] = system: C57BL/6J mice; assay: MOG-induced experimental autoimmune encephalomyelitis (EAE); type: in vivo; conditions: daily treatment starting on PID 10, preliminary results, FIG. 2

Row | Compound | 1/Elispot [3] | AntiPrion (Number of Cells × 10^4) [3] | EliSpot (Spots/10000 Cells) [3] [Spots/10000 Cells] | Elispot (vs PC) [3] | AntiERStress (% Cell Survival) [4] [% Cell Survival] | further results
1 | N=C(N)N/N=C/c1c(Cl)cccc1Cl [BC1-45-1, guanabenz, acetate] | – | – | – | – | – | survival rate ([1]; all treatment groups (pretreatment and delayed 0.5-8 h post acetaminophen)): 100%; elevated ALT levels after acetaminophen overdose ([1]; acetate): reduces elevated levels of ALT; also recorded: limited the hepatotoxicity of acetaminophen; hepatotoxicity of acetaminophen (ALT levels) ([1]; acetate): can limit the hepatotoxicity of acetaminophen; also recorded: limited the hepatotoxicity of acetaminophen; analgesic synergy with acetaminophen in tail flick assay [2]: exhibited synergy in the analgesic activity; also recorded: provided synergy at all the time points tested
2 | N=C(N)N/N=C\c1c(Cl)cccc1Cl [BC1-55-1, (Z)-2-(2,6-dichlorobenzylidene)hydrazinecarboximidamide acetate] | 0.59 | 3 × 10^4 | 2200 | 1.69 | 64.33 | lipid peroxidation products (TBARS assay) ([1]; acetaminophen overdose, FIG. 7, acetate): can reduce the lipid peroxidation products; also recorded: limited the elevated lipid peroxidation byproducts; survival rate ([1]; delayed administration post APAP): 100%; elevated ALT levels after acetaminophen overdose ([1]; acetate): reduces elevated levels of ALT; survival rate ([1]; pretreated animals, acetaminophen overdose): 100%; hepatotoxicity of acetaminophen (ALT levels) ([1]; acetate): can limit the hepatotoxicity of acetaminophen; also recorded: limited the hepatotoxicity of acetaminophen; viability at 2.5 µM ([4]; read-out: % Cell Survival Cmpd(2.5 μM) + Tuni, Hela cells, compound 2.5 μM + tunicamycin, WST-8 viability 48 hours after tunicamycin treatment): 22.1%; viability at 2.5 µM ([4]; read-out: Compounds ERS (vs Tn), ERS activity vs Tuni = % cell survival (compound)/% cell survival (tunicamycin), compound 2.5 μM): 96%
3 | N=C(N)N/N=C/c1c(I)cccc1I [BC2-55-2, (E)-2-(2,6-diiodobenzylidene)hydrazinecarboximidamide] | 1.00 | 4 × 10^4 | 1300 | 1.00 | 70.69 | –
4 | N=C(N)N/N=C/c1c(O)cccc1Cl [BC2-59-1, (E)-2-(2-chloro-6-hydroxybenzylidene)hydrazinecarboximidamide acetate] | 0.93 | 15 × 10^4 | 1400 | 1.08 | 104.6895 | –
5 | N=C(N)N/N=C/c1c(N)cccc1Cl [BC2-61-1, (E)-2-(2-amino-6-chlorobenzylidene)hydrazinecarboximidamide] | 0.93 | 10 × 10^4 | 1400 | 1.08 | 86.56 | –
6 | N=C(N)N/N=C/c1ccccc1N [BC2-61-2, (E)-2-(2-aminobenzylidene)hydrazinecarboximidamide] | 1.63 | 50 × 10^4 | 800 | 0.62 | 58.21 | –
7 | CC(=O)N[C@@H](CS)C(=O)O [N-acetyl cysteine] | – | – | – | – | – | elevated ALT levels after acetaminophen overdose [1]: less effective in limiting elevated ALT levels; hepatotoxicity of acetaminophen (ALT levels) [1]: less effective in limiting the hepatotoxicity of acetaminophen; animals died before completion of the study ([1]; pretreatment, acetaminophen overdose): Twenty-five; animals died before completion of the study ([1]; treated four hours after acetaminophen overdose): Eighty-eight
8 | NC(N)=N/N=C/c1ccccc1Cl [Sephin 1, reference compound] | 1.63 | 32 × 10^4 | 800 | 0.62 | 87.19 | EAE disease severity (clinical severity score) [5]: markedly attended the EAE disease severity; EAE disease severity (clinical severity score) ([5]; listed as sephin 1): attends the EAE disease severity; ERS (vs Tn) ([4]; % cell survival (compound)/% cell survival (tunicamycin)): 1.80
